{"source": "PubChem BioAssay (NCI)", "experiment_in_all_cases": "NCI-60 cell line screen, 48 h", "key": {"[1]": {"system": "DLD-1 colon"}, "[2]": {"system": "DMS 114 small cell lung"}, "[3]": {"system": "HOP-18 NSCLC"}, "[4]": {"system": "KM12 colon"}, "[5]": {"system": "LOX IMVI melanoma"}, "[6]": {"system": "M19-MEL melanoma"}, "[7]": {"system": "MALME-3M melanoma"}, "[8]": {"system": "OVCAR-3 ovarian"}, "[9]": {"system": "SK-MEL-2 melanoma"}, "[10]": {"system": "HS 578T breast"}, "[11]": {"system": "MDA-MB-435"}}, "note": "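Cells were grown in 96-well plates and exposed to each compound for 48 hours at five concentrations; endpoints were interpolated linearly between bracketing concentrations, or set to the highest concentration if not reached. TGI denotes the concentration required for complete inhibition of growth.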", "data": [{"smiles": "O=[N+]([O-])c1ccc(C=NC2CCCCC2)cc1", "values": [{"measurement": "TGI", "setting": "[1]", "value": "> 100", "unit": "µM"}, {"measurement": "TGI", "setting": "[2]", "value": "> 100", "unit": "µM"}, {"measurement": "TGI", "setting": "[3]", "value": "> 100", "unit": "µM"}, {"measurement": "TGI", "setting": "[4]", "value": "> 100", "unit": "µM"}, {"measurement": "TGI", "setting": "[5]", "value": "> 100", "unit": "µM"}, {"measurement": "TGI", "setting": "[6]", "value": "> 100", "unit": "µM"}, {"measurement": "TGI", "setting": "[7]", "value": "> 100", "unit": "µM"}, {"measurement": "TGI", "setting": "[8]", "value": "> 100", "unit": "µM"}, {"measurement": "TGI", "setting": "[9]", "value": "> 100", "unit": "µM"}]}, {"smiles": "NC(=O)COC(=O)c1c(Cl)nc2sccn12", "values": [{"measurement": "TGI", "setting": "[1]", "value": "> 100", "unit": "µM"}, {"measurement": "TGI", "setting": "[2]", "value": "> 83.8", "unit": "µM"}, {"measurement": "TGI", "setting": "[3]", "value": "> 100", "unit": "µM"}, {"measurement": "TGI", "setting": "[4]", "value": "> 100", "unit": "µM"}, {"measurement": "TGI", "setting": "[5]", "value": "> 100", "unit": "µM"}, {"measurement": "TGI", "setting": "[6]", "value": "> 100", "unit": "µM"}, {"measurement": "TGI", "setting": "[7]", "value": "> 100", "unit": "µM"}, {"measurement": "TGI", "setting": "[8]", "value": "> 62.6", "unit": "µM"}, {"measurement": "TGI", "setting": "[9]", "value": "> 100", "unit": "µM"}]}, {"smiles": "CCN(CC)C(c1ccc(N(C)C)cc1)C(c1ccc(N(C)C)cc1)N(CC)CC", "note": "(stereo not drawn)", "values": [{"measurement": "TGI", "setting": "[2]", "value": 40.6, "unit": "µM"}, {"measurement": "TGI", "setting": "[4]", "value": "> 73", "unit": "µM"}, {"measurement": "TGI", "setting": "[6]", "value": "> 73", "unit": "µM"}, {"measurement": "TGI", "setting": "[7]", "value": 50.3, "unit": "µM"}, {"measurement": "TGI", "setting": "[8]", "value": "> 73", "unit": "µM"}, {"measurement": "TGI", "setting": "[9]", "value": "> 73", "unit": "µM"}]}, {"smiles": "COc1ccc2c(c1)[n+](=O)c(C(=O)C/C(=N/OCCCc1ccccc1)C(=O)NC13CC4CC(CC(C4)C1)C3)c(C)n2[O-]", "values": [{"measurement": "TGI", "setting": "[1]", "value": "> 100", "unit": "µM"}, {"measurement": "TGI", "setting": "[2]", "value": "> 100", "unit": "µM"}, {"measurement": "TGI", "setting": "[3]", "value": "> 100", "unit": "µM"}, {"measurement": "TGI", "setting": "[4]", "value": "> 100", "unit": "µM"}, {"measurement": "TGI", "setting": "[5]", "value": "> 100", "unit": "µM"}, {"measurement": "TGI", "setting": "[6]", "value": "> 100", "unit": "µM"}, {"measurement": "TGI", "setting": "[7]", "value": "> 100", "unit": "µM"}, {"measurement": "TGI", "setting": "[8]", "value": "> 100", "unit": "µM"}, {"measurement": "TGI", "setting": "[9]", "value": "> 100", "unit": "µM"}]}, {"smiles": "CNC(=O)C1CCc2nnc(-c3ccccc3)n21", "note": "(stereo not drawn)", "values": [{"measurement": "TGI", "setting": "[1]", "value": "> 100", "unit": "µM"}, {"measurement": "TGI", "setting": "[2]", "value": "> 100", "unit": "µM"}, {"measurement": "TGI", "setting": "[3]", "value": "> 100", "unit": "µM"}, {"measurement": "TGI", "setting": "[4]", "value": "> 100", "unit": "µM"}, {"measurement": "TGI", "setting": "[6]", "value": "> 100", "unit": "µM"}, {"measurement": "TGI", "setting": "[7]", "value": "> 100", "unit": "µM"}, {"measurement": "TGI", "setting": "[8]", "value": "> 100", "unit": "µM"}, {"measurement": "TGI", "setting": "[9]", "value": "> 100", "unit": "µM"}]}, {"smiles": "COc1ccc2nc3c(C(=O)NCCN(C)C)cccc3nc2c1", "values": [{"measurement": "TGI", "setting": "[1]", "value": "> 1", "unit": "µM"}, {"measurement": "TGI", "setting": "[2]", "value": 20.2, "unit": "µM"}, {"measurement": "TGI", "setting": "[3]", "value": "> 100", "unit": "µM"}, {"measurement": "TGI", "setting": "[4]", "value": "> 100", "unit": "µM"}, {"measurement": "TGI", "setting": "[5]", "value": 17.9, "unit": "µM"}, {"measurement": "TGI", "setting": "[6]", "value": 22.2, "unit": "µM"}, {"measurement": "TGI", "setting": "[8]", "value": 59.9, "unit": "µM"}, {"measurement": "TGI", "setting": "[9]", "value": 21.8, "unit": "µM"}]}, {"smiles": "C/C(CC(=O)Nc1cc(C)ccc1C)=N\\NC(=O)c1ccncc1", "values": [{"measurement": "TGI", "setting": "[1]", "value": "> 100", "unit": "µM"}, {"measurement": "TGI", "setting": "[4]", "value": "> 100", "unit": "µM"}, {"measurement": "TGI", "setting": "[5]", "value": "> 100", "unit": "µM"}, {"measurement": "TGI", "setting": "[6]", "value": "> 100", "unit": "µM"}, {"measurement": "TGI", "setting": "[7]", "value": "> 100", "unit": "µM"}, {"measurement": "TGI", "setting": "[8]", "value": "> 100", "unit": "µM"}, {"measurement": "TGI", "setting": "[9]", "value": "> 100", "unit": "µM"}]}, {"smiles": "Nc1c(-c2ccc(Cl)cc2)[n+]([O-])c2ccccc2[n+]1[O-]", "values": [{"measurement": "TGI", "setting": "[1]", "value": "> 100", "unit": "µM"}, {"measurement": "TGI", "setting": "[2]", "value": "> 100", "unit": "µM"}, {"measurement": "TGI", "setting": "[3]", "value": "> 100", "unit": "µM"}, {"measurement": "TGI", "setting": "[4]", "value": "> 100", "unit": "µM"}, {"measurement": "TGI", "setting": "[5]", "value": "> 100", "unit": "µM"}, {"measurement": "TGI", "setting": "[6]", "value": "> 100", "unit": "µM"}, {"measurement": "TGI", "setting": "[7]", "value": "> 100", "unit": "µM"}, {"measurement": "TGI", "setting": "[8]", "value": "> 100", "unit": "µM"}, {"measurement": "TGI", "setting": "[9]", "value": "> 100", "unit": "µM"}]}, {"smiles": "O=C(CC1(O)C(=O)Nc2c(Cl)ccc(Cl)c21)c1ccc(F)cc1", "note": "(stereo not drawn)", "values": [{"measurement": "TGI", "setting": "[1]", "value": "> 100", "unit": "µM"}, {"measurement": "TGI", "setting": "[2]", "value": 52.1, "unit": "µM"}, {"measurement": "TGI", "setting": "[3]", "value": "> 100", "unit": "µM"}, {"measurement": "TGI", "setting": "[4]", "value": "> 100", "unit": "µM"}, {"measurement": "TGI", "setting": "[5]", "value": "> 100", "unit": "µM"}, {"measurement": "TGI", "setting": "[7]", "value": "> 100", "unit": "µM"}, {"measurement": "TGI", "setting": "[8]", "value": "> 100", "unit": "µM"}, {"measurement": "TGI", "setting": "[9]", "value": "> 100", "unit": "µM"}]}, {"smiles": "Cc1cc(Cl)cc2c1NC(=O)C2(O)CC(=O)c1ccco1", "note": "(stereo not drawn)", "values": [{"measurement": "TGI", "setting": "[1]", "value": "> 100", "unit": "µM"}, {"measurement": "TGI", "setting": "[2]", "value": "> 100", "unit": "µM"}, {"measurement": "TGI", "setting": "[3]", "value": "> 100", "unit": "µM"}, {"measurement": "TGI", "setting": "[10]", "value": "> 100", "unit": "µM"}, {"measurement": "TGI", "setting": "[4]", "value": "> 100", "unit": "µM"}, {"measurement": "TGI", "setting": "[5]", "value": "> 69.8", "unit": "µM"}, {"measurement": "TGI", "setting": "[6]", "value": 30.9, "unit": "µM"}, {"measurement": "TGI", "setting": "[7]", "value": "> 76.1", "unit": "µM"}, {"measurement": "TGI", "setting": "[11]", "value": 14.2, "unit": "µM"}, {"measurement": "TGI", "setting": "[8]", "value": "> 100", "unit": "µM"}, {"measurement": "TGI", "setting": "[9]", "value": "> 100", "unit": "µM"}]}, {"smiles": "CC(SC(=S)N1CCOCC1)c1cc2oc(=O)n(C)c2cc1Cl", "note": "(stereo not drawn)", "values": [{"measurement": "TGI", "setting": "[1]", "value": "> 100", "unit": "µM"}, {"measurement": "TGI", "setting": "[2]", "value": "> 100", "unit": "µM"}, {"measurement": "TGI", "setting": "[3]", "value": "> 100", "unit": "µM"}, {"measurement": "TGI", "setting": "[4]", "value": "> 100", "unit": "µM"}, {"measurement": "TGI", "setting": "[5]", "value": "> 100", "unit": "µM"}, {"measurement": "TGI", "setting": "[6]", "value": "> 100", "unit": "µM"}, {"measurement": "TGI", "setting": "[7]", "value": "> 100", "unit": "µM"}, {"measurement": "TGI", "setting": "[8]", "value": "> 100", "unit": "µM"}, {"measurement": "TGI", "setting": "[9]", "value": "> 100", "unit": "µM"}]}]}
